# In patent US20170334899A1, “AMINO-SUBSTITUTED ISOTHIAZOLES” (Bayer Pharma Aktiengesellschaft, priority 2014, published 2017):
# Values joined by “and” are separate entries in the source; they are usually repeats but may differ in a detail not shown here. Equal entries are not always repeated.
# Columns and labels:
# CDK2/CycE = molecular target: T1, CDK2/CycE (Homo sapiens, UniProt P24941); test: CDK2/CycE kinase assay (TR-FRET); assay type: biochemical; settings: avg, read-out: CDK2 avg (IC50 [mol/l])
# T1 construct: GST; purchased ProQinase GmbH (Freiburg, Germany); host or cells: insect cells (Sf9)
# Outline: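 GST-tagged human CDK2 and CycE from Sf9 cells, preincubated 15 min with compound, then 25 min at 22° C. with 10 μM ATP and 0.75 μM biotinylated Rb-derived peptide (final). Phospho-substrate read by TR-FRET (anti-pRB pSer807/pSer811, Eu anti-mouse IgG, streptavidin-XL665), 665/620 nm ratio, normalised to no-inhibitor and no-enzyme controls.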
# [1] = molecular target: T2, catalytic domain of human Bub1 (amino acids 704-1085) (Homo sapiens, UniProt O43683); test: Bub1 kinase assay (TR-FRET); assay type: biochemical; settings: 10 μM ATP, avg, read-out: Bub1 avg (IC50 [mol/l])
# T2 construct: catalytic domain of human Bub1 (amino acids 704-1085); His6 (N); made in house; host or cells: insect cells (Hi5)
# T2 sequence (O43683 704-1085): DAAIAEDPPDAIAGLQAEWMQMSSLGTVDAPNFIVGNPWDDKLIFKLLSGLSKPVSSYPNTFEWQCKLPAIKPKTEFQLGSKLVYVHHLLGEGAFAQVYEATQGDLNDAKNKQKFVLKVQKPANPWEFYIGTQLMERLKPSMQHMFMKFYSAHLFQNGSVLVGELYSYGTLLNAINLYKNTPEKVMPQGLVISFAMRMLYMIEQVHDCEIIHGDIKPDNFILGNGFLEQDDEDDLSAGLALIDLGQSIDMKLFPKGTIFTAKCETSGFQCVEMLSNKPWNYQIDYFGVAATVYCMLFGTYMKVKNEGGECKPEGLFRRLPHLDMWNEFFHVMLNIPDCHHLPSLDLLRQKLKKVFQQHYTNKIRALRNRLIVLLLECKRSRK
# Outline: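 Readout is the 665/620 nm TR-FRET ratio from anti-phosphoserine antibody, Eu-labelled anti-mouse IgG and streptavidin-XL665, scaled between no-enzyme and uninhibited controls. Reaction: 1 μM biotinylated peptide, 10 μM ATP, 60 min, 22 °C, after 15 min compound preincubation with His6-Bub1 (704-1085, insect-expressed, ~200 ng/ml).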
compound,measurement,setting,value
"Cc1nsc(Nc2cncc(C(F)(F)F)n2)c1C(=O)Nc1ccc(OC2CCN(CC(F)F)CC2)c(F)c1 [Example 224, N-(4-{[1-(2,2-difluoroethyl)piperidin-4-yl]oxy}-3-fluorophenyl)-3-methyl-5-{[6-(trifluoromethyl)pyrazin-2-yl]amino}-1,2-thiazole-4-carboxamide]",IC50,CDK2/CycE,> 20 µM
same,IC50,[1],> 20 µM
"CC(=O)Nc1cc(NC(=O)c2c(C)nsc2Nc2cnc(C(F)(F)F)cn2)ccc1F [Example 206, N-(3-acetamido-4-fluorophenyl)-3-methyl-5-{[5-(trifluoromethyl)pyrazin-2-yl]amino}-1,2-thiazole-4-carboxamide]",IC50,CDK2/CycE,> 20 µM
same,IC50,[1],13 µM
"Cc1nsc(Nc2cncc(C(F)(F)F)n2)c1C(=O)Nc1ccc(OCCN)nc1 [Example 196, N-[6-(2-aminoethoxy)pyridin-3-yl]-3-methyl-5-{[6-(trifluoromethyl)pyrazin-2-yl]amino}-1,2-thiazole-4-carboxamide]",IC50,CDK2/CycE,> 20 µM
same,IC50,[1],> 20 µM
"Cc1nsc(Nc2cncc(C(F)(F)F)n2)c1C(=O)Nc1ccc(C(=O)NC2CCN(CC(F)F)CC2)cc1 [Example 225, N-N-(4-{[1-(2,2-difluoroethyl)piperidin-4-yl]carbamoyl}phenyl)-3-methyl-5-{[6-(trifluoromethyl)pyrazin-2-yl]amino}-1,2-thiazole-4-carboxamide]",IC50,CDK2/CycE,> 20 µM
same,IC50,[1],> 20 µM
"Cc1nsc(Nc2cncc(C(F)(F)F)n2)c1C(=O)Nc1cccc(S(C)(=O)=O)c1 [Example 194, 3-methyl-N-[3-(methylsulfonyl)phenyl]-5-{[6-(trifluoromethyl)pyrazin-2-yl]amino}-1,2-thiazole-4-carboxamide]",IC50,CDK2/CycE,> 20 µM and 7.8 µM
same,IC50,[1],> 20 µM and 11 µM and 19 µM
"Cc1nsc(Nc2cnc3ccccc3n2)c1C(=O)Nc1ccc(C(=O)O)cc1 [Example 187, 4-({[3-methyl-5-(quinoxalin-2-ylamino)-1,2-thiazol-4-yl]carbonyl}amino)benzoic acid]",IC50,CDK2/CycE,> 20 µM
same,IC50,[1],3.8 µM
"Cc1nsc(Nc2cc(C#N)ccn2)c1C(=O)Nc1ccc(NC2CCCNC2)nc1 (centres unmarked) [Example 242, 5-[(4-cyanopyridin-2-yl)amino]-3-methyl-N-[6-(piperidin-3-ylamino)pyridin-3-yl]-1,2-thiazole-4-carboxamide]",IC50,CDK2/CycE,> 20 µM
same,IC50,[1],> 20 µM
"Cc1nsc(Nc2ccc(C#N)cn2)c1C(=O)Nc1ccc(S(C)(=O)=O)cc1 [Example 246, 5-[(5-cyanopyridin-2-yl)amino]-3-methyl-N-[4-(methylsulfonyl)phenyl]-1,2-thiazole-4-carboxamide]",IC50,CDK2/CycE,> 20 µM
same,IC50,[1],> 20 µM
"Cc1nsc(Nc2cncc(C(F)(F)F)n2)c1C(=O)Nc1ccc(OCCNC(=O)OC(C)(C)C)nc1 [Example 191, tert-butyl {2-[(5-{[(3-methyl-5-{[6-(trifluoromethyl)pyrazin-2-yl]amino}-1,2-thiazol-4-yl)carbonyl]amino}pyridin-2-yl)oxy]ethyl}carbamate]",IC50,CDK2/CycE,18 µM
same,IC50,[1],> 20 µM
"Cc1nsc(Nc2cc(C#N)ccn2)c1C(=O)Nc1ccc(OCCC(=O)OC(C)(C)C)nc1 [Example 200, tert-butyl 3-({5-[({5-[(4-cyanopyridin-2-yl)amino]-3-methyl-1,2-thiazol-4-yl}carbonyl)amino]pyridin-2-yl}oxy)propanoate]",IC50,CDK2/CycE,> 20 µM
same,IC50,[1],> 20 µM
"Cc1nsc(Nc2cnc3ccccc3n2)c1C(=O)Nc1ccc(NC2CCN(C(=O)OC(C)(C)C)CC2)nc1 [Example 234, tert-butyl 4-{[5-({[3-methyl-5-(quinoxalin-2-ylamino)-1,2-thiazol-4-yl]carbonyl}amino)pyridin-2-yl]amino}piperidine-1-carboxylate]",IC50,CDK2/CycE,> 20 µM
same,IC50,[1],> 20 µM
"Cc1nsc(Nc2cnc(C(F)(F)F)cn2)c1C(=O)Nc1ccc(C(=O)NCCN2CCCC(F)C2)cc1 (centres unmarked) [Example 213, N-(4-{[2-(3-fluoropiperidin-1-yl)ethyl]carbamoyl}phenyl)-3-methyl-5-{[5-(trifluoromethyl)pyrazin-2-yl]amino}-1,2-thiazole-4-carboxamide]",IC50,CDK2/CycE,> 20 µM
same,IC50,[1],17 µM
"Cc1nsc(Nc2cc(C#N)ccn2)c1C(=O)Nc1ccc(NC(=O)OC(C)(C)C)cc1 [Example 177, tert-butyl {4-[({5-[(4-cyanopyridin-2-yl)amino]-3-methyl-1,2-thiazol-4-yl}carbonyl)amino]phenyl}carbamate]",IC50,CDK2/CycE,> 20 µM
same,IC50,[1],> 20 µM
"Cc1nsc(Nc2cc(C#N)ccn2)c1C(=O)Nc1ccc(C(=O)OC(C)(C)C)cc1 [Example 182, tert-butyl 4-[({5-[(4-cyanopyridin-2-yl)amino]-3-methyl-1,2-thiazol-4-yl}carbonyl)amino]benzoate]",IC50,CDK2/CycE,> 20 µM
same,IC50,[1],> 20 µM
"Cc1nsc(Nc2cnc3ccccc3n2)c1C(=O)Nc1ccc(F)c(C(N)=O)c1 [Example 202, N-(3-carbamoyl-4-fluorophenyl)-3-methyl-5-(quinoxalin-2-ylamino)-1,2-thiazole-4-carboxamide]",IC50,CDK2/CycE,> 20 µM
same,IC50,[1],> 20 µM
"CCN(CC)CCNC(=O)c1cccc(NC(=O)c2c(C)nsc2Nc2cnccn2)c1 [Example 247, N-(3-{[2-(diethylamino)ethyl]carbamoyl}phenyl)-3-methyl-5-(pyrazin-2-ylamino)-1,2-thiazole-4-carboxamide]",IC50,CDK2/CycE,> 20 µM
same,IC50,[1],> 20 µM
"Cc1nsc(Nc2ccc(C#N)cn2)c1C(=O)Nc1cccc(NC(=O)OC(C)(C)C)c1 [Example 179, tert-butyl {3-[({5-[(5-cyanopyridin-2-yl)amino]-3-methyl-1,2-thiazol-4-yl}carbonyl)amino]phenyl}carbamate]",IC50,CDK2/CycE,> 20 µM
same,IC50,[1],> 20 µM
"Cc1nsc(Nc2cnc3ccccc3n2)c1C(=O)Nc1ccc(C(=O)OC(C)(C)C)cc1 [Example 181, tert-butyl 4-({[3-methyl-5-(quinoxalin-2-ylamino)-1,2-thiazol-4-yl]carbonyl}amino)benzoate]",IC50,CDK2/CycE,> 20 µM
same,IC50,[1],> 20 µM
"Cc1nsc(Nc2cnc3ccccc3n2)c1C(=O)Nc1ccc(NCCNC(=O)OC(C)(C)C)nc1 [Example 244, tert-butyl (2-{[5-({[3-methyl-5-(quinoxalin-2-ylamino)-1,2-thiazol-4-yl]carbonyl}amino)pyridin-2-yl]amino}ethyl)carbamate]",IC50,CDK2/CycE,> 20 µM
same,IC50,[1],> 20 µM
"Cc1nsc(Nc2cnc(C(F)(F)F)cn2)c1C(=O)Nc1ccc(OC2CCN(C(=O)OC(C)(C)C)CC2)c(F)c1 [Example 217, tert-butyl 4-(2-fluoro-4-{[(3-methyl-5-{[5-(trifluoromethyl)pyrazin-2-yl]amino}-1,2-thiazol-4-yl)carbonyl]amino}phenoxy)piperidine-1-carboxylate]",IC50,CDK2/CycE,> 20 µM
same,IC50,[1],> 20 µM
"CC(=O)N1CCC(Oc2ccc(NC(=O)c3c(C)nsc3Nc3cncc(C(F)(F)F)n3)cn2)CC1 [Example 17, N-{6-[(1-Acetylpiperidin-4-yl)oxy]pyridin-3-yl}-3-methyl-5-{[6-(trifluoromethyl)-pyrazin-2-yl]amino}-1,2-thiazole-4-carboxamide]",IC50,CDK2/CycE,≥ 20 µM
same,IC50,[1],≥ 20 µM
"CCN(CC)CCNC(=O)c1cccc(NC(=O)c2c(C)nsc2Nc2cc(C#N)ccn2)c1 [Example 174, 5-[(4-cyanopyridin-2-yl)amino]-N-(3-{[2-(diethylamino)ethyl]carbamoyl}phenyl)-3-methyl-1,2-thiazole-4-carboxamide]",IC50,CDK2/CycE,> 20 µM
same,IC50,[1],> 20 µM
"Cc1nsc(Nc2cnc(C(F)(F)F)cn2)c1C(=O)Nc1ccc(OCC2CCCN(C(=O)OC(C)(C)C)C2)nc1 (centres unmarked) [Example 228, tert-butyl 3-{[(5-{[(3-methyl-5-{[5-(trifluoromethyl)pyrazin-2-yl]amino}-1,2-thiazol-4-yl)carbonyl]amino}pyridin-2-yl)oxy]methyl}piperidine-1-carboxylate]",IC50,CDK2/CycE,> 20 µM
same,IC50,[1],> 20 µM
"Cc1nsc(Nc2cnc3ccccc3n2)c1C(=O)Nc1ccc(OC2CCN(CC(F)F)CC2)nc1 [Example 20, N-(6-{[1-(2,2-difluoroethyl)piperidin-4-yl]oxy}pyridin-3-yl)-3-methyl-5-(quinoxalin-2-ylamino)-1,2-thiazole-4-carboxamide]",IC50,CDK2/CycE,≥ 20 µM
same,IC50,[1],≥ 20 µM
"Cc1nsc(Nc2cnc3ccccc3n2)c1C(=O)Nc1ccc(NC(=O)C(C)(C)C)cc1 [Example 185, N-{4-[(2,2-dimethylpropanoyl)amino]phenyl}-3-methyl-5-(quinoxalin-2-ylamino)-1,2-thiazole-4-carboxamide]",IC50,CDK2/CycE,> 20 µM
same,IC50,[1],> 20 µM
"Cc1nsc(Nc2cncc(C(F)(F)F)n2)c1C(=O)Nc1ccc(OCCCN)nc1 [Example 209, N-[6-(3-aminopropoxy)pyridin-3-yl]-3-methyl-5-{[6-(trifluoromethyl)pyrazin-2-yl]amino}-1,2-thiazole-4-carboxamide]",IC50,CDK2/CycE,> 20 µM
same,IC50,[1],> 20 µM
"Cc1nsc(Nc2cnc(C(F)(F)F)cn2)c1C(=O)Nc1ccc(OCCNC(=O)OC(C)(C)C)c(F)c1 [Example 215, tert-butyl [2-(2-fluoro-4-{[(3-methyl-5-{[5-(trifluoromethyl)pyrazin-2-yl]amino}-1,2-thiazol-4-yl)carbonyl]amino}phenoxy)ethyl]carbamate]",IC50,CDK2/CycE,> 20 µM
same,IC50,[1],> 20 µM
"Cc1nsc(Nc2cnc3ccccc3n2)c1C(=O)Nc1ccc(Nc2ccc(F)c(F)c2)nc1 [Example 245, N-{6-[(3,4-difluorophenyl)amino]pyridin-3-yl}-3-methyl-5-(quinoxalin-2-ylamino)-1,2-thiazole-4-carboxamide]",IC50,CDK2/CycE,12 µM
same,IC50,[1],> 20 µM
